Measured values as given in BindingDB's records for doi:10.1073/pnas.92.8.3298 (Agouron Pharmaceuticals, 1995).

Molecular target: T1, Dimer of Gag-Pol polyprotein [489-587] (Human immunodeficiency virus 1, UniProt P12497)
T1 construct: 489-587
Experiment: Protease Inhibition Assay
Conditions: pH 5.6; 37 °C
Experimental: Protease activity was measured by continuous chromogenic assay. The chromogenic peptide His-Lys-Ala-Arg-Val-Leu- (p-NO2-Phe)-Glu-Ala-Nleu-Ser (Bachem) was used as a substrate. Reactions were followed by the decrease of absorbance at 300 nm measured by spectrophotometer. Experimental results were analyzed by the nonlinear regression analysis, using a mathematical model for tight binding inhibitors.

Structure (SMILES)	Ki
CC(C)(C)NC(=O)c1c(CC[C@H](O)Cc2ccc3ccccc3c2C(=O)NC(C)(C)C)ccc2ccccc12 [N-tert-butyl-2-[(3S)-4-[1-(tert-butylcarbamoyl)naphthalen-2-yl]-3-hydroxybutyl]naphthalene-1-carboxamide]	0.481 µM
CC(C)(C)NC(=O)c1ccccc1CCC(O)Cc1ccccc1C(=O)NC(C)(C)C (stereo not drawn) [2-Butanol deriv. 8]	24 µM
CC(C)(C)NC(=O)c1ccccc1CC(O)CSc1ccccc1NC(=O)C(C)(C)C (stereo not drawn) [N-tert-butyl-2-(3-{[2-(2,2-dimethylpropanamido)phenyl]sulfanyl}-2-hydroxypropyl)benzamide]	> 100 µM
CC(C)(C)NC(=O)c1ccccc1CCC(O)Cc1ccc2ccccc2c1C(=O)NC(C)(C)C (stereo not drawn) [N-tert-butyl-2-{4-[2-(tert-butylcarbamoyl)phenyl]-2-hydroxybutyl}naphthalene-1-carboxamide]	2.2 µM
CC(C)(C)NC(=O)c1ccccc1C[C@@H](O)[C@H](Cc1ccccc1)NC(=O)[C@H](CC(N)=O)NC(=O)c1ccc2ccccc2n1 [(2S)-N-[(2S,3R)-4-[2-(tert-butylcarbamoyl)phenyl]-3-hydroxy-1-phenylbutan-2-yl]-2-(quinolin-2-ylformamido)butanediamide]	0.0016 µM
CCC1(N(CCO)C(=O)c2ccccc2CCC(O)Cc2ccc(Cl)cc2C(=O)N(CCO)C(C)(C)c2ccccc2)CCCC1 (stereo not drawn) [Tertiary Amide deriv. 43cb]	0.002 µM
CC(C)(c1ccccc1)N(CCO)C(=O)c1ccccc1CCC(O)Cc1ccccc1C(=O)N(CCO)C(C)(C)c1ccccc1 (stereo not drawn) [2-(3-hydroxy-4-{2-[(2-hydroxyethyl)(2-phenylpropan-2-yl)carbamoyl]phenyl}butyl)-N-(2-hydroxyethyl)-N-(2-phenylpropan-2-yl)benzamide]	0.022 µM
CC(C)(C)NC(=O)c1ccccc1SCC(O)Cc1ccccc1C(=O)N(CCO)C(C)(C)C (stereo not drawn) [Tertiary Amide deriv. 6]	34 µM
CCC1(N(CCO)C(=O)c2ccccc2CC[C@H](O)Cc2ccc(C)cc2C(=O)N(CCO)C(C)(C)c2ccccc2)CCCC1 [2-[(2S)-4-{2-[(1-ethylcyclopentyl)(2-hydroxyethyl)carbamoyl]phenyl}-2-hydroxybutyl]-N-(2-hydroxyethyl)-5-methyl-N-(2-phenylpropan-2-yl)benzamide]	1.4 µM
CC(C)(C)NC(=O)c1ccccc1CC(O)CSc1ccccc1C(=O)NC(C)(C)C (stereo not drawn) [N-tert-butyl-2-(3-{[2-(tert-butylcarbamoyl)phenyl]sulfanyl}-2-hydroxypropyl)benzamide]	83 µM
CC(C)(C)N(CCO)C(=O)c1ccccc1CCC(O)Cc1ccccc1C(=O)N(CCO)C(C)(C)c1ccccc1 (stereo not drawn) [N-tert-butyl-2-(3-hydroxy-4-{2-[(2-hydroxyethyl)(2-phenylpropan-2-yl)carbamoyl]phenyl}butyl)-N-(2-hydroxyethyl)benzamide]	0.09 µM
CC(C)(C)NC(=O)c1c(CC[C@@H](O)Cc2ccc3ccccc3c2C(=O)NC(C)(C)C)ccc2ccccc12 [diarylbutanol deriv. 7R]	25 µM
CCC1(N(CCO)C(=O)c2ccccc2CC[C@@H](O)Cc2ccc(C)cc2C(=O)N(CCO)C(C)(C)c2ccccc2)CCCC1 [2-[(2R)-4-{2-[(1-ethylcyclopentyl)(2-hydroxyethyl)carbamoyl]phenyl}-2-hydroxybutyl]-N-(2-hydroxyethyl)-5-methyl-N-(2-phenylpropan-2-yl)benzamide]	0.0048 µM
